The test system of series [1] is mouse Lewis lung adenocarcinoma. Further details: method as in PMID 34370156. As to conditions: cited from earlier work.
The test system of the next series is cells. The settings on record: cited from earlier work; for CC50: read-out: CC50 values (toxicity to cells).
The nature of series [2]: MTT cytotoxicity test, MCF-7. In kind it is cell-based. As to conditions: human, MCF-7 cells (breast cancer), read-out: semitoxic concentration (CC50), MCF-7. An excerpt: (§1) Compounds 6 and 8 with a bromophenol residue in the enamine fragment have a weak or moderate effect on cell survival (Table 1 and Supplementary Figure S1).
(§2) Cytotoxicity of the compounds against human tumor cell lines: HeLa (cervical cancer), HCT-116 (colorectal cancer), A-549 (lung cancer), MCF-7 (breast cancer), T98G (glioblastoma), HepG2 (hepatocarcinoma), and nontumor cell lines: MRC-5 (lung fibroblasts) and HEK293A (human embryonic kidney) was examined using the MTT test. HCT-116 and MRC-5 cell lines were provided by the Cell Culture Bank of the State Research Center for Virology and Biotechnology Vector, Novosibirsk, Russia. A-549, MCF-7, and T98G cell lines were obtained from the Russian Cell Culture Collection (RCCC) Institute of Cytology RAS (St. Petersburg, Russia). HEK293A cells were purchased (ThermoFisher Scientific, Waltham, MA, USA).
(§3) The cell culture medium DMEM medium (Invitrogen, Carlsbad, CA, USA) contained 10% fetal bovine serum (FBS) (Invitrogen), penicillin (100 units/mL), and streptomycin (100 µg/mL). Cells were seeded into 96-well plates at 5000 cells per well and grown at 37 °C and 5% CO2 in a humid atmosphere. At 30–50% confluence, the tested compounds were added to the medium to a final DMSO content of 1%. Control wells contained 1% DMSO. To determine the cytotoxicity of Tdp1 inhibitors, the cells were treated with compounds with concentrations ranging from 1 to 100 µM for 72 h at 37 °C […]. All measurements were repeated a minimum of twice.
For orientation: Formazan colour is commonly taken as a measure of viable cells.

The nature of series [3]: MTT cytotoxicity test, HCT-116. It counts as cell-based. The settings on record: human, HCT-116 cells (colorectal cancer), read-out: semitoxic concentration (CC50), HCT-116.
Text: as §1, §2, §3

A short description of series [4]: MTT cytotoxicity test, A-549. The settings on record: human, A-549 cells (lung cancer), read-out: semitoxic concentration (CC50), A-549. In kind it is cell-based.
Text: as §1, §2, §3

Series [5] can be described thus: MTT cytotoxicity test, T98G. It counts as cell-based. The settings on record: human, T98G cells (glioblastoma), read-out: semitoxic concentration (CC50), T98G.
Text: as §1, §2, §3

Series [6] can be described thus: MTT cytotoxicity test, MRC-5. It counts as cell-based. As to conditions: human, MRC-5 cells (lung fibroblasts, nontumor), read-out: semitoxic concentration (CC50), MRC-5.
Text: as §1, §2, §3

In another series the target is T1, Tdp1 (Homo sapiens, UniProt Q9NUW8).
T1 construct: Purified Tdp1 (1.5 nM) triggered the reaction
T1 sequence (Q9NUW8 whole entry): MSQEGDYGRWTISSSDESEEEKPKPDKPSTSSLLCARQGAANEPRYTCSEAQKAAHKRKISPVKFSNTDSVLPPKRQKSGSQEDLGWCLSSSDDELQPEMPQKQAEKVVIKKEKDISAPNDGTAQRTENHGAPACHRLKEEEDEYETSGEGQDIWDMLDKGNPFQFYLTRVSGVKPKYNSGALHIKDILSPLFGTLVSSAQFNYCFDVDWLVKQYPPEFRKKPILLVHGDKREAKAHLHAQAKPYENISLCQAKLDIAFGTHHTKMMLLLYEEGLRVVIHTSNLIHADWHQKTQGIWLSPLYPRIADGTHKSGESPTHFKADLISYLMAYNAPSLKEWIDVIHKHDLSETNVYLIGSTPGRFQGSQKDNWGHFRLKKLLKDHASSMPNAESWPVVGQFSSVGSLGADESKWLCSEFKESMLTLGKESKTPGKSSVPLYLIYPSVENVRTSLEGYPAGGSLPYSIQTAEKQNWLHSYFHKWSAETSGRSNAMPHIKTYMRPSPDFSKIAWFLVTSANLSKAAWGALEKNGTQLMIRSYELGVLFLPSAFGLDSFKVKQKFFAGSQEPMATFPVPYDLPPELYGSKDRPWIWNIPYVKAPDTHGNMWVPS
Nature of the series: Tdp1 inhibition, fluorescent oligonucleotide biosensor. It counts as biochemical. As to conditions: purified Tdp1 1.5 nM, 50 nM biosensor; read-out: Concentration of half-maximal inhibition of Tdp1 (IC50). The source says:
The inhibitory properties of the compound on the purified Tdp1 was studied using a technique developed previously by our team. A 16-mer single-stranded oligonucleotide carrying a fluorophore at the 5′-end and a quencher at the 3′-end was used as a biosensor. When within the Förster radius, the quencher suppressed the fluorescence of the fluorophore. The quencher was removed by Tdp1, resulting in fluorescence emission. Usnic acid derivatives with a bromophenol residue in the enamine fragment (compounds 6 and 8) inhibit the enzyme with half-maximal inhibition concentrations (IC50) an order of magnitude worse than derivatives with a di-tert-butyl fragment (compounds 5 and 7).
An oligonucleotide 5′-[FAM] AAC GTC AGGGTC TTC C [BHQ1]-3′ synthesized in the laboratory Laboratory of Nucleic Acids Chemistry at the Institute of Chemical Biology and Fundamental Medicine (Novosibirsk, Russia) was used as a biosensor. Removal of the quencher (BHQ1) due to enzyme activity leads to increased fluorescence of FAM. The reaction was carried out at different concentrations of inhibitors (1.5% of DMSO, Sigma, St. Louis, MO, USA, in the control samples). The reaction mixtures contained Tdp1 buffer (50 mM Tris-HCl pH 8.0, 50 mM NaCl, and 7 mM β-mercaptoethanol), 50 nM biosensor, and an inhibitor being tested. Purified Tdp1 (1.5 nM) triggered the reaction.
The fluorescence was measured using POLARstar OPTIMA fluorimeter (BMG LABTECH, GmbH, Ortenberg, Germany). The values of IC50 were determined in minimum three independent experiments and were calculated using embedded software MARS Data Analysis 2.0 (BMG LABTECH, GmbH, Ortenberg, Germany).

Series [7] is described as follows: MTT cytotoxicity test, HEK293A. It counts as cell-based. The settings on record: human, HEK293A cells (embryonic kidney, nontumor), read-out: semitoxic concentration (CC50), HEK293A.
Text: as §1, §2, §3

The test system of series [8] is various types of cultured cells. Nature of the series: MTT test, panel of cultured cell lines. In kind it is cell-based. As to conditions: at concentrations up to 100 μM; wide panel of tumor and non-cancerous cell lines.
Text: as §1, §2
The cell culture medium DMEM medium (Invitrogen, Carlsbad, CA, USA) contained 10% fetal bovine serum (FBS) (Invitrogen), penicillin (100 units/mL), and streptomycin (100 µg/mL). Cells were seeded into 96-well plates at 5000 cells per well and grown at 37 °C and 5% CO2 in a humid atmosphere. At 30–50% confluence, the tested compounds were added to the medium to a final DMSO content of 1%. Control wells contained 1% DMSO. […]

The nature of series [9]: MTT cytotoxicity test, HeLa. It counts as cell-based. As to conditions: human, HeLa cells (cervical cancer), read-out: semitoxic concentration (CC50), HeLa.
Text: as §1, §2, §3

SMILES strings stand for the structures.

For `CC(=O)c1c(O)c(C)c(O)c2c1OC1=CC(=O)/C(=C(\C)NCCCc3cc(C(C)(C)C)c(O)c(C(C)(C)C)c3)C(=O)[C@@]12C` [Compound 1], the “enhancement of the antitumor effect of topotecan” value in series [1] was “enhanced at least twofold”. Further, in the series on cells, the “toxicity to the different cell types (in words)” value is given as “nontoxic”.

Regarding `CC(=O)c1c(O)c(C)c(O)c2c1OC1=CC(=O)/C(=C(\C)Nc3ccc(Br)cc3)C(=O)[C@@]12C` [Compound 2], the “toxicity to the different cell types (in words)” value in the series on cells is “nontoxic”.

As to `CC(=O)C1=C(O)C=C2Oc3c(-c4csc(N/N=C/c5ccc(Br)s5)n4)c(O)c(C)c(O)c3[C@@]2(C)C1=O` [Compound 3], in the series on cells, the CC50 is 9 to 16 µM.

On to `CC(=O)C1=C(O)C=C2Oc3c(-c4csc(N/N=C/c5ccc(Br)cc5)n4)c(O)c(C)c(O)c3[C@@]2(C)C1=O` [Compound 4, reference compound], for which the CC50 at 72 h in series [2] is 9.3 ± 2.2 µM; in [3], 7 ± 0.6 µM; in series [4] it was 3.9 ± 0.2 µM; in series [5], 4 ± 1 µM; in [6], 7 ± 0.7 µM; in [7], 12 ± 5 µM. Further, the CC50 with cells is 1.5 µM. On Tdp1, the IC50 was 0.03 ± 0.01 µM.

For `C/C(NCCCc1cc(C(C)(C)C)c(O)c(C(C)(C)C)c1)=C1\C(=O)C=C2Oc3c(-c4csc(N/N=C/c5ccc(Br)s5)n4)c(O)c(C)c(O)c3[C@@]2(C)C1=O` [Compound 5, (4E)-10-{2-[(E)-2-[(5-bromothiophenyl)methylidene]hydrazin-1-yl]-1,3-thiazole-4-yl}-4-(1-{[3-(3,5-di-tret-butyl-4-hydroxyhenyl)propyl]amino}ethylidene)-11,13-dihydroxy-2,12-dimethyl-8-oxatricyclo [7.4.0.02,7]trideca-1(13),6,9,11-tetraen-3,5-dione], in [8], the “living cells (metabolic activity, MTT)” value was “more than 50%”. Besides, the CC50 at 72 h in series [2], in series [3], in series [4], in series [5], in series [6] and in series [7] was > 100 µM in each case. The CC50 at 72 h in [9] was > 100 µM. Besides, the IC50 at Tdp1 was 0.14 ± 0.02 µM.

Consider `C/C(Nc1ccc(Br)cc1)=C1\C(=O)C=C2Oc3c(-c4csc(N/N=C/c5ccc(Br)cc5)n4)c(O)c(C)c(O)c3[C@@]2(C)C1=O` [Compound 8, (4E)-4-{1-[(4-bromophenyl)amino]ethilidene}-10-{2-[(E)-2-[(4-bromophenyl)methylidene]hydrazin-1-yl]-1,3-thiazol-4-yl}-11,13-dihydroxy-2,12-dimethyl-8-oxatricyclo [7.4.0.02,7]trideca-1(13),6,9,11-tetraen-3,5-dione], for which the CC50 at 72 h in series [2] was 30 ± 20 µM; in series [4], 30 ± 10 µM; in [5], 44 ± 13 µM; in series [7], 88 ± 26 µM; in series [9] it was > 100 µM. The IC50 at Tdp1 worked out at 5 ± 1 µM.

Values taken from PMC10816808, “Enhancement of the Antitumor and Antimetastatic Effect of Topotecan and Normalization of Blood Counts in Mice with Lewis Carcinoma by Tdp1 Inhibitors—New Usnic Acid Derivatives” (International Journal of Molecular Sciences, 2024).
